The target of test [1] is T1, ACAT of rat liver microsomes (Rattus norvegicus, UniProt Q7TQM4).
T1 construct: rat liver microsome fraction prepared in accordance with a method known per se; from tissue; host or cells: rat liver microsomes
T1 sequence (Q7TQM4 1-524): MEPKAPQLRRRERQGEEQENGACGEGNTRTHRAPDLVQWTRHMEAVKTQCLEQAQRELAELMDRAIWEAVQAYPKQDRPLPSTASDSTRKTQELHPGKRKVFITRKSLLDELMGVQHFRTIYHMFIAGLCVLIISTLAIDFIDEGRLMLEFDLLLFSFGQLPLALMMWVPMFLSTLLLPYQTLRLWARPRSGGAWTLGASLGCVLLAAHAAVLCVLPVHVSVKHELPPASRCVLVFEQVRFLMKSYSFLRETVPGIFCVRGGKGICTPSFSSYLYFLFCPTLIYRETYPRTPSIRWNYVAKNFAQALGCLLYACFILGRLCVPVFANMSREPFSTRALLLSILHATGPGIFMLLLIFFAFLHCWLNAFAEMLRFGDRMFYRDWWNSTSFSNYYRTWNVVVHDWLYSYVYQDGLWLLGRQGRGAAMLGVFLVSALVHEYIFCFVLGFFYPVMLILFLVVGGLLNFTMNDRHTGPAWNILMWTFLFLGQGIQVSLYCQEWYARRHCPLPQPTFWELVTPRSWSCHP
In words: Test for inhibitory activity against ACAT using rat liver microsomes. The conditions noted are these: 5 min; 100 nM of each compound; Mean ± S.D.; n = 3; vs DMSO control; read-out: Inhibition rate against ACAT activity in rat liver microsome. The format is biochemical. As to the method: More specifically, [^14 C]oleoyl-CoA and delipidized BSA were added to a rat liver microsome fraction prepared in accordance with a method known per se in the art to conduct a reaction at 37° C. for 5 minutes. After the reaction, the lipid in the reaction mixture was extracted with hexane, and the extract was dried to solid under reduced pressure.
In general terms: Liver microsomes are a subcellular fraction often used to study metabolism.

The target of test [2] is T2, ACAT in J774 cells (Mus musculus, UniProt Q61263).
T2 construct: endogenous in cells; host or cells: J774 cells (mouse macrophage-like)
T2 sequence (Q61263 1-540): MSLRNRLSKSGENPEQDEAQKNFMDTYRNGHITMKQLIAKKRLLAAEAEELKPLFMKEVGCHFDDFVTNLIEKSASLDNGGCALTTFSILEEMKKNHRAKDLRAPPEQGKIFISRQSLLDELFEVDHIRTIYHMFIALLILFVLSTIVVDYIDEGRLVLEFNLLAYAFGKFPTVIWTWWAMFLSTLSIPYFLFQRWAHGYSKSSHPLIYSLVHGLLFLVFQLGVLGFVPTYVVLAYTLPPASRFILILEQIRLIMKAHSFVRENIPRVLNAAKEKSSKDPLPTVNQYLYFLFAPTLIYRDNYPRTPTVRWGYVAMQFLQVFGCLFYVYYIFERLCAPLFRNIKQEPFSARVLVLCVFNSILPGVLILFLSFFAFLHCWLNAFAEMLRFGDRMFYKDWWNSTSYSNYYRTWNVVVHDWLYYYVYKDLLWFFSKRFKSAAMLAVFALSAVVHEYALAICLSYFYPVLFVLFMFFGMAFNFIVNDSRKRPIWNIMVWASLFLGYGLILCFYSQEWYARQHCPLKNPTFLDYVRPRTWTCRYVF
In words: Test for inhibitory activity against ACAT using J774 cells. The format is cell-based. The conditions noted are these: 100 nM of each compound, Mean ± S.D., n = 3, vs DMSO control, read-out: Inhibition rate against ACAT activity in J774 cells. The protocol: i) Test for inhibitory activity against ACAT using J774 cells:
The ACAT activity of J774 cells was measured as the radioactivity of cholesteryl oleate produced from [^14 C]oleic acid and cholesterol which were added to a culture solution.
The extract was dried to solid under reduced pressure. After the resultant residue was then developed (developing solvent: diethyl ether/hexane/acetic acid=80/20/1) by TLC (thin-layer chromatography), the amount of cholesteryl oleate formed was determined by an imaging plate.

As usually defined, the inhibition is the percentage by which the read-out fell short of the control.

`CC(C)c1cccc(C(C)C)c1NC(=O)NCc1cccc(OCc2ccc([N+](=O)[O-])cc2)c1` [Compound 1, 1-(2,6-diisopropylphenyl)-3-[3-(4-nitrobenzyloxy)benzyl]urea]: the inhibition at 0.1 µM worked out at 0% in test [1] and 86.3 ± 1.58% in test [2].

The values above are taken from US5922767A, “Substituted benzylurea derivatives and medicine containing the same” (SS Pharmaceutical Co., Ltd., priority 1996, dated 1999).
